Experiment [1] addresses Serine/threonine-protein kinase pim-1 (Homo sapiens, UniProt P11309). As to the kind of experiment: Selectivity interaction (Upstate Kinase Profiler service (Millipore)) EUB0000056c PIM1. The settings on record: at 1 µM.
Experiment [2] has as its target Ribosomal protein S6 kinase alpha-4 (Homo sapiens) (UniProt O75676). Particulars: at 10 µM.
Experiment [3] has as its target CDK4/Cyclin D3 (Homo sapiens) (UniProt P11802+P30281). As to the kind of experiment: Selectivity interaction (KinomeScan (DiscoverX)) EUB0001079a CDK4. The experiment is classed as protein-complex assay. The settings on record: at 1 µM.
For experiment [4], the target named is N-lysine methyltransferase SMYD2 (Homo sapiens) (UniProt Q9NRG4). Nature of the experiment: Selectivity interaction (Methyltransferase screen (Scintillation proximity assays)) EUB0000255b SMYD2. A general note: Scintillation proximity formats need no separation of bound from free tracer.
Chain of N-lysine methyltransferase SMYD2 (Homo sapiens) (Q9NRG4 whole entry, canonical isoform): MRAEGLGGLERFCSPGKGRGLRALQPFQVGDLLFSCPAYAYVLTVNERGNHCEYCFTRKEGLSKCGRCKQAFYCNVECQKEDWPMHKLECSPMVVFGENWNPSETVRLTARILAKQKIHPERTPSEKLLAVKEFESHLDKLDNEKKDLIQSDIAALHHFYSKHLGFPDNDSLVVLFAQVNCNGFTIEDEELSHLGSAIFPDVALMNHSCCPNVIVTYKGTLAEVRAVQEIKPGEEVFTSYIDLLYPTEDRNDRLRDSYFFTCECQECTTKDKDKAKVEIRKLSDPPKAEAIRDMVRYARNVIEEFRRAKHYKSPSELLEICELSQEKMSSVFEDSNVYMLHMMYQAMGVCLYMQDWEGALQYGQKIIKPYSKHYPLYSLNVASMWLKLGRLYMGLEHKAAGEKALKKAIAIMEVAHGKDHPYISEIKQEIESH
Experiment [5] has as its target T1, Phosphatidylinositol 4,5-bisphosphate 3-kinase catalytic subunit delta isoform (Homo sapiens) (UniProt O00329).
T1 sequence (whole entry): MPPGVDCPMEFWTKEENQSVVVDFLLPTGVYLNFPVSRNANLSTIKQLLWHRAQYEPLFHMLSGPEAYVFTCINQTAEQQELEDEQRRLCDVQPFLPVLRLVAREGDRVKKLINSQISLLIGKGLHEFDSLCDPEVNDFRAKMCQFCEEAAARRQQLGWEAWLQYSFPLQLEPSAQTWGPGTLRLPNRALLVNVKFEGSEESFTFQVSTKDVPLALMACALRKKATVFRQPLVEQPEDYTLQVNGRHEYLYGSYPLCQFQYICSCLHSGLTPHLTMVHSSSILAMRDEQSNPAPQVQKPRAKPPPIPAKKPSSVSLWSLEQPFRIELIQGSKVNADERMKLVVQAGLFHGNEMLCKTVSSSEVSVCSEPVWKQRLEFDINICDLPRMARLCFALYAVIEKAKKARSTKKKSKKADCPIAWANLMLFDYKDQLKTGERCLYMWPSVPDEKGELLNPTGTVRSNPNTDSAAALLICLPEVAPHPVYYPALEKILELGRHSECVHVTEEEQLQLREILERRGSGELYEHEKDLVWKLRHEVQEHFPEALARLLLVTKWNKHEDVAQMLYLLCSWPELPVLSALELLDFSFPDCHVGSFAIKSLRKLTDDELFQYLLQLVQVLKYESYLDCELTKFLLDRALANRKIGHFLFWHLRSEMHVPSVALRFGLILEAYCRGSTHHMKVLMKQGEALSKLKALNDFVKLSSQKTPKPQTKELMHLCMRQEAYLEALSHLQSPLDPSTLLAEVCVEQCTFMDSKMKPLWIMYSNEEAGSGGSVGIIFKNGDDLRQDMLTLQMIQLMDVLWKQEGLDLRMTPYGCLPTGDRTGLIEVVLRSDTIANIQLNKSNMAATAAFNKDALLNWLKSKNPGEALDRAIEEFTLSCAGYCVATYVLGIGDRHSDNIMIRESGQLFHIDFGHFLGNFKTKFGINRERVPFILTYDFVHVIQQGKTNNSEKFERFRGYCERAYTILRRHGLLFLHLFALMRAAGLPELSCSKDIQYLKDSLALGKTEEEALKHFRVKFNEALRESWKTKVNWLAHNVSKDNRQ
As to the kind of experiment: Selectivity interaction (KinomeScan (DiscoverX)) EUB0000655a PIK3CD. The settings on record: at 10 µM.

The target of experiment [6] is Dual specificity mitogen-activated protein kinase kinase 1 (Homo sapiens, UniProt Q02750). Nature of the experiment: Selectivity interaction (KinomeScan (DiscoverX)) EUB0001550a MAP2K1. Particulars: at 1 µM.
Chain of Dual specificity mitogen-activated protein kinase kinase 1 (Q02750 whole entry): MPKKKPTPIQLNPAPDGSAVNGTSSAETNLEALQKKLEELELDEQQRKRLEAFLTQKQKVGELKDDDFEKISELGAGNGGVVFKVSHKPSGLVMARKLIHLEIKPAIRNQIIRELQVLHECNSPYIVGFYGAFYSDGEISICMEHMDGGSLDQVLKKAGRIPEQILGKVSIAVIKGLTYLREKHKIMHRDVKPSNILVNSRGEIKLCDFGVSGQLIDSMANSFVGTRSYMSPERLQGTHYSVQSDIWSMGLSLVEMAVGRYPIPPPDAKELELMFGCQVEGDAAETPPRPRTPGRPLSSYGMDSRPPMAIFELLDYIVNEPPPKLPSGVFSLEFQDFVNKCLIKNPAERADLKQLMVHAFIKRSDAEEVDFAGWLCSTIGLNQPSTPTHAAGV
Experiment [7] addresses Calcium/calmodulin-dependent protein kinase type 1 (Homo sapiens) (UniProt Q14012). As to the kind of experiment: Selectivity interaction (KinomeScan (DiscoverX)) EUB0000045b CAMK1.
For experiment [8], the target named is T2, Inhibitor of nuclear factor kappa-B kinase subunit epsilon (Homo sapiens) (UniProt Q14164).
T2 sequence (whole entry): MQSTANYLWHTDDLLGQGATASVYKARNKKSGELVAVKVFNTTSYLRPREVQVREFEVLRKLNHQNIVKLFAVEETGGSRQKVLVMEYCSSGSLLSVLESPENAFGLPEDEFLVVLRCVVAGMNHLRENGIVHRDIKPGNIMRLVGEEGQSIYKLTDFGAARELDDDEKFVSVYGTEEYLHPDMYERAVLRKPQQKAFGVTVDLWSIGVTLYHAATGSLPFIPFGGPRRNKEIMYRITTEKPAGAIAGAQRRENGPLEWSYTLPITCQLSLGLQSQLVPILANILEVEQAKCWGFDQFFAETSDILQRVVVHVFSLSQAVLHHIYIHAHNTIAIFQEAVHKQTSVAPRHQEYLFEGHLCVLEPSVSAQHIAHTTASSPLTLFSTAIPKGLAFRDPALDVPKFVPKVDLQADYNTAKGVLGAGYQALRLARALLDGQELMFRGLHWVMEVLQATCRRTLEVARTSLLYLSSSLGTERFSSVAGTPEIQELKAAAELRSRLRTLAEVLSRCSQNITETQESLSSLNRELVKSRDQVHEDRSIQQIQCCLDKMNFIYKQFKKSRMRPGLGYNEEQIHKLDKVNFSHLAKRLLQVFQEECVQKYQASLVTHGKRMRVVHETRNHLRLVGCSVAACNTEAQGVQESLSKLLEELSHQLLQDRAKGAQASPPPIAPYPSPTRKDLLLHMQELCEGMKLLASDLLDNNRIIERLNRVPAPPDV
As to the kind of experiment: Selectivity interaction (ActivX KiNativ screen (kinase selectivity in THP-1 cell lysates)) EUB0000639a IKBKE. It is filed as subcellular. The settings on record: lysate, at 5 µM.

The target in experiment [9] is T3, MAP kinase-activated protein kinase 5 (Homo sapiens) (UniProt Q8IW41).
T3 sequence (whole entry): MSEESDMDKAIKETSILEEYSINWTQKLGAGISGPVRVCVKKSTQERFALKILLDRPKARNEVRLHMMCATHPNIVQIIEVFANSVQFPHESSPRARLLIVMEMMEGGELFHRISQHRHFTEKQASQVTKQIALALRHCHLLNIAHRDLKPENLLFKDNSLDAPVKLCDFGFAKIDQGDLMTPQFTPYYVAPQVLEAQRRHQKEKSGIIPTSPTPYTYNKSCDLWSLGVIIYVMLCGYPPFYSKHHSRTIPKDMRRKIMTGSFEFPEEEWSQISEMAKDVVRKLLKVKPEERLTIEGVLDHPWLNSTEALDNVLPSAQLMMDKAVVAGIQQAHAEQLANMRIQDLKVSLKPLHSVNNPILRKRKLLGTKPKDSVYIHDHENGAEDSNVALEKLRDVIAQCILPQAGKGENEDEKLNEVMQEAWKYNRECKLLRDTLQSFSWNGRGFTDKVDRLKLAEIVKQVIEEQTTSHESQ
As to the kind of experiment: Selectivity interaction (Kinase panel (Invitrogen)) EUB0000639a MAPKAPK5. Particulars: at 200 nM.

In experiment [10] the target is 5'-AMP-activated protein kinase catalytic subunit alpha-1 (Homo sapiens, UniProt Q13131). Nature of the experiment: Selectivity interaction (ActivX KiNativ screen (kinase selectivity in THP-1 cell lysates)) EUB0000639a PRKAA1. Particulars: lysate, at 0.2 µM. It is filed as subcellular.
Chain of 5'-AMP-activated protein kinase catalytic subunit alpha-1 (Q13131 whole entry, looked up): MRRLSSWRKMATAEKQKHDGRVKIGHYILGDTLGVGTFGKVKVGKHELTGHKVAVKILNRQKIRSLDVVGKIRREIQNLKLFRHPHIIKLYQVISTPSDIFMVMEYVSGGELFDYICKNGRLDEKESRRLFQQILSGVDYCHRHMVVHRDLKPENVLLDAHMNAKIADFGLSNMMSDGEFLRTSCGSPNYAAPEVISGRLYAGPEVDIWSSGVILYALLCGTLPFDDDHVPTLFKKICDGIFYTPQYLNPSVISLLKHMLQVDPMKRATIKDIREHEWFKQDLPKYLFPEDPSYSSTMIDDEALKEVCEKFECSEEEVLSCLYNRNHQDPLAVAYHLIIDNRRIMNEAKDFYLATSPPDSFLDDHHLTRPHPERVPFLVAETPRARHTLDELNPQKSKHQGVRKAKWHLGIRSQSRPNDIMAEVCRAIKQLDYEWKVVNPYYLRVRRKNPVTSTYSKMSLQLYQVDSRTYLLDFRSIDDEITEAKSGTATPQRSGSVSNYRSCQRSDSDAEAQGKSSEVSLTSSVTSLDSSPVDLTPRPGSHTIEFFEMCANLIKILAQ
For experiment [11], the target named is Misshapen-like kinase 1 (Homo sapiens, UniProt Q8N4C8). Nature of the experiment: Selectivity interaction (KinomeScan (DiscoverX)) EUB0000595a MINK1. Particulars: at 10 µM.
Chain of Misshapen-like kinase 1 (Q8N4C8 whole entry, looked up): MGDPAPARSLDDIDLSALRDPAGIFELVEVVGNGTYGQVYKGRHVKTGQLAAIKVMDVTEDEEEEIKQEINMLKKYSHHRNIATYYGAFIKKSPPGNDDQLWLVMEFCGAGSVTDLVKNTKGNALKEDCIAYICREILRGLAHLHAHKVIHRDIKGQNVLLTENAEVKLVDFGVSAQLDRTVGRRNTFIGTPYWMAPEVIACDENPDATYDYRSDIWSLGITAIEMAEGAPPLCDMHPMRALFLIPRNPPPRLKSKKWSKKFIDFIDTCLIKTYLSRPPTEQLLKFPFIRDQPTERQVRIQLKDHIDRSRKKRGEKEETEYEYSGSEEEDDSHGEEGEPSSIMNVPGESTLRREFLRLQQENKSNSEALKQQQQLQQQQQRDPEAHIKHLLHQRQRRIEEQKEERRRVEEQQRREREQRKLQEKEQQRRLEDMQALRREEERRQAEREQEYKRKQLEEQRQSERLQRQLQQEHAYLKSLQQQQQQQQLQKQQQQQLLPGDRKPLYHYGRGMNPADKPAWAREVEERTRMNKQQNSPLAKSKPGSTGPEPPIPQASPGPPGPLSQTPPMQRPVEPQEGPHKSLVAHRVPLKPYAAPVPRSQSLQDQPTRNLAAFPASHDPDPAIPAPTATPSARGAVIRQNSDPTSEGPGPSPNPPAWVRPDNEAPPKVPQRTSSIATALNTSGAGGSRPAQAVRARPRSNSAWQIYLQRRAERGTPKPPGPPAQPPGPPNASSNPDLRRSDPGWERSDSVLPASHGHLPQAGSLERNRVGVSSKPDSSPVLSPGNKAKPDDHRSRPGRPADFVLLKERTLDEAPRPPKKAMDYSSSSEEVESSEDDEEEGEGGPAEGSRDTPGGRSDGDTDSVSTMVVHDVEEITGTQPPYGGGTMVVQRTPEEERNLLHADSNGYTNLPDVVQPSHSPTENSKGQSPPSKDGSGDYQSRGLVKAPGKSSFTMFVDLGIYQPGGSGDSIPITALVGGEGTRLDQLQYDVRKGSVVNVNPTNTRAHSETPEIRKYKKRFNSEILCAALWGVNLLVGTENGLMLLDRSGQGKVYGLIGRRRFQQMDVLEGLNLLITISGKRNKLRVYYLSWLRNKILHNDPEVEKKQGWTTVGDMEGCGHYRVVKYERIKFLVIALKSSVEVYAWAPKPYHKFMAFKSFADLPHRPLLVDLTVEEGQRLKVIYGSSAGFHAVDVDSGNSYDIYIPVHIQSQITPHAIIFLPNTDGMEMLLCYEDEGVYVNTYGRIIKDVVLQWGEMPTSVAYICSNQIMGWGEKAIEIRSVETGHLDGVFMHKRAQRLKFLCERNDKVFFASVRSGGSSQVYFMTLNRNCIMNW

Chain of Calcium/calmodulin-dependent protein kinase type 1 (Homo sapiens) (Q14012 whole entry, looked up): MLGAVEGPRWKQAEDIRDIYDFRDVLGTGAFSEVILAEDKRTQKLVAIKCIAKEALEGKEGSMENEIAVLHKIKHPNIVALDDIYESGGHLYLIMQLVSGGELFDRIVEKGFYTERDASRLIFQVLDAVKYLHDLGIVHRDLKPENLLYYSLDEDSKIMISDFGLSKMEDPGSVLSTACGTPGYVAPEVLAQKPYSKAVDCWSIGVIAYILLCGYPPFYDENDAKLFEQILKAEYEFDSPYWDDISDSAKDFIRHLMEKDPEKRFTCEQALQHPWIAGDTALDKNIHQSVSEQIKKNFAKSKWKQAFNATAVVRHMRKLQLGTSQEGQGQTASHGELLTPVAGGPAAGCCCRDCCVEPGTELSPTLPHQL
Chain of Ribosomal protein S6 kinase alpha-4 (Homo sapiens) (O75676 whole entry, looked up): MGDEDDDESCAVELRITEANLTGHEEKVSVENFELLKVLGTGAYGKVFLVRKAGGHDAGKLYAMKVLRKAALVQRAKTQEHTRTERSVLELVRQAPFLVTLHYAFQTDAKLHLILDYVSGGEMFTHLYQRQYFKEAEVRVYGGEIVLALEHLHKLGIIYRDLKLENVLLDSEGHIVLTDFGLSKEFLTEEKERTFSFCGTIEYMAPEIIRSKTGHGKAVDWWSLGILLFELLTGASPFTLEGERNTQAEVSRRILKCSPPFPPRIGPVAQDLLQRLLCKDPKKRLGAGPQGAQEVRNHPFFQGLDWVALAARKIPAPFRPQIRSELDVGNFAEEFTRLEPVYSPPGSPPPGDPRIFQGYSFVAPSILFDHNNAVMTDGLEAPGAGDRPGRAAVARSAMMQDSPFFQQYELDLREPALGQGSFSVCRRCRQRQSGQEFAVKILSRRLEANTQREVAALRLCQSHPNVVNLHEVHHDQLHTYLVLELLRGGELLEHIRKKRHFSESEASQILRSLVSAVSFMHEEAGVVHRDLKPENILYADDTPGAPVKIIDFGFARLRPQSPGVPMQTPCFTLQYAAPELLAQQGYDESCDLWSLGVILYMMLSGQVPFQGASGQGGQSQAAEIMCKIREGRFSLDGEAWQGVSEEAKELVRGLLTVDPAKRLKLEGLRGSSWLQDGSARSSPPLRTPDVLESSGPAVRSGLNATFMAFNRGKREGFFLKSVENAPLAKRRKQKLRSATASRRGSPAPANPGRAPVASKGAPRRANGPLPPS
Chain of Serine/threonine-protein kinase pim-1 (P11309 whole entry, looked up): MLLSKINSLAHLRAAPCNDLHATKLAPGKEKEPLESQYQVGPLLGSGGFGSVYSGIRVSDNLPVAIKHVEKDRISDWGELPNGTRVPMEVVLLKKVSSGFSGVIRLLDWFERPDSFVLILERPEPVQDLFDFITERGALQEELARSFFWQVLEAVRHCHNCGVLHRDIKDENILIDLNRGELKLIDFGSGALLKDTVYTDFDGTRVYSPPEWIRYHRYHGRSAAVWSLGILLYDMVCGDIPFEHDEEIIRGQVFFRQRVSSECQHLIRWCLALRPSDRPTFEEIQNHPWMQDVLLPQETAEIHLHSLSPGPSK

With `Cc1ccc(-c2ccc3c(ccc4sc5c(c43)NC[C@@H](C)NC5=O)n2)cn1`, the % of inhibition in experiment [1] was determined as 89%.

Consider `Cc1cc([C@@H](C)Nc2ccccc2C(=O)O)c2nc(N3CCOCC3)cc(=O)n2c1` [AZD-6482], for which the % of control in experiment [2] was 100%.

Turning to `Nc1cnc(N2CCc3cc(S(=O)(=O)Nc4c(F)cc(Cl)cc4F)cc(N4CCCC4=O)c32)nc1` [TP-020n], the % of control in experiment [3] was 86%.

As for `COCCN1CCC(c2cc(CN(C)C(=O)c3cccc(Oc4ccccc4)c3)ccn2)CC1`, the % activity in [4] (at 1 µM) was > 95%; in experiment [4] (at 10 µM) it was > 90%.

Compound `CN(C)CCOc1ccc(-c2nc(-c3ccncc3)c(-c3ccc4c(c3)CC/C4=N\O)[nH]2)cc1` displayed a % of control in experiment [5] of 79%.

`CN(C)CC#Cc1ccc2[nH]c3c(c2c1)-c1nc(N)ncc1CCC3`: the % of control in experiment [6] is 4.5%.

For `C=CC(=O)Nc1cc(-n2c(=O)ccc3cnc4ccc(-c5ccc(NS(C)(=O)=O)cc5)cc4c32)ccc1C`, the % of control was 100% in [7] (at 1 µM) and 88% in experiment [7] (at 10 µM).

For `CC[C@@H]1[C@H](F)C(=O)N[C@@H]1COc1nccc2cc(C(N)=O)c(OC)cc12` [ZIMLOVISERTIB], the % of inhibition in experiment [8] is 26.2%; in experiment [9], 8.71%; in [10] it was -4.3%.

On to `COCC(=O)NC/C=C/c1ccc2ncnc(Nc3ccc(Oc4ccc(C)nc4)c(C)c3)c2c1` [CP-724714], for which the % of control in experiment [11] is 77%.

For the origin of these results see ChEMBL document CHEMBL5465560, “Selectivity Literature for EUbOPEN Chemogenomic Library” (2024).
